One data set is described as follows: Thermodynamic solubility. The format is physicochemical. The following applies: for solubility at 24 h: thermodynamic from solid, read-out: Solubility Free Base equivalent. On the procedure:
Thermodynamic solubility values were determined in each of 0.1M HCl, Deionised water, pH6.8 phosphate buffer, 0.9% saline and 5% dextrose.
1.25-1.5 mg of sample was weighed out into a 1 ml HPLC tube to which 0.25 ml of the dissolution media was added to allow for determination of solubility up to 5 mg/ml. This suspension was then shaken for 24 hours before measurement of the pH, filtration (through a 96 well plate with a glass fibre filter membrane), dilution and analysis of the neat and diluted solutions at different injection volumes on a generic 5 minute HPLC method.
A reference solution was prepared in DMSO for comparison and calculation of the test solubilities. XRPD patterns were measured of remaining solids from experiments where complete dissolution was not achieved.
It is believed the large additional peak noted in the HPLC chromatograms is due to a rotamer of the parent compound. This should therefore be included in the overall peak area assessment. Therefore, the largest and second largest peaks noted in the reference solution were added together as were the same peaks (i.e. the same retention times) in the test sample injections.

Data set [1] is described as follows: Cytotoxicity / growth inhibition, A549. Conditions: human, A549 cells; read-out: Cytotoxic IC50 vs. A549. The data set is classed as cell-based.
In data set [2] the test system is G-quadruplex DNA (F21T oligonucleotide). In words: FRET DNA melting assay. The format is binding. Conditions: [conc]ΔTm=20 value. On the procedure: The ability of the compounds to stabilise G-quadruplex DNA was investigated using a fluorescence resonance energy transfer (FRET) assay modified to be used as a high-throughput screen in a 96-well format. The labelled oligonucleotide F21T (5′-FAM-dGGG(TTAGGG)-3-TAMRA-3′) used as the FRET probe was diluted from stock to the correct concentration (400 nM) in a 50 mM potassium cacodylate buffer (pH 7.4) and then annealed by heating to 85° C. for 10 min., followed by cooling to room temperature in the heating block.
Compounds were stored as 10 mM stock solutions in DMSO; final solutions (at 2× concentration) were prepared using water or 1M HCl in the initial 1:10 dilution, after which 50 mM potassium cacodylate buffer (pH 7.4) was used in all subsequent steps. 96-well plates (MJ Research, Waltham, Mass.) were prepared by aliquoting 50 μl of the annealed DNA to each well, followed by […] of the compound solutions. Measurements were made on a DNA Engine Opticon (MJ Research) with excitation at 450-495 nm and detection at 515-545 nm. Fluorescence readings were taken at intervals of 0.5° C. over the range 30-100° C., with a constant temperature being maintained for 30 seconds prior to each reading to ensure a stable value. Final analysis of the data was carried out using a script written in the program Origin 7.0 (OriginLab Corp., Northampton, Mass.). […]

Data set [3] in a line: pKa measurement (Sirius GlpKa, potentiometric and UV titration). The format is physicochemical. The procedure: Pka determination was performed on a Sirius GlpKa instrument equipped with a D-PAS (Dip-Probe Absorption Spectroscopy) attachment. Measurements were made by potentiometric and UV titration in MeOH:H2O mixtures at 25° C. The titration media was ionic strength adjusted with 0.15 M KCl. The values found in the MeOH:H2O mixtures were extrapolated to 0% co-solvent via a Yasuda-Shedlovsky extrapolation. Prediction of pKa values was made using ACD v8.07 software.
BSG01-4.14 from aqueous UV measurement (Potentiometry gave 4.15 although incomplete curves were collected). Other values from potentiometric in Aqueous/MeOH mixtures followed by Yasuda-Shedlovsky extrapolation to 0% MeOH. All pKas basic from slope of extrapolation. P BSG17—Values from potentiometric titrations in Aqueous/MeOH mixtures followed by Yasuda-Shedlovsky extrapolation to 0% MeOH. All pKas basic from slop of extrapolation. PKas 2 and 3 for titration in 30% MeOH removed from YS extrapolation due to precipitation.

Data set [4] in a line: Pharmacokinetic evaluation in mice (plasma kinetics). Conditions: for AUC(0-t): female, MF1, mouse; for Cmax / clearance / half-life: mouse, female MF1 mice; for half-life: single dose (1 mg/kg iv or 20 mg/kg oral; route not stated with values). The data set is classed as in vivo, mouse. On the procedure: The test article is identified as BSG17 and has been studied in comparison to BSG01 (BRACO-19). The vials containing bulk test article were stored at room temperature (15-30° C.).
The test compound was reconstituted in 0.9% physiological saline B.P. to the required final concentrations. To ensure the stability of the test formulations, prepared formulations were administered within two hours of preparation.
Treated mice received a single bolus intravenous injection or oral gavage of the test formulations at a dose-volume of […] bodyweight. Control mice were untreated.
The mouse was selected because it is a rodent species and is acceptable to the regulatory authorities for pharmacokinetic studies. Dose levels of 1 mg/kg (intravenous) and 20 mg/kg (oral) were selected for this study.
Female MF1 mice in the weight rang of 26-30 g (6 to 8 weeks of age) were obtained from the BRF Facility, SGHMS/Harlan UK, Bicester and were individually identified using a permanent tail mark (using a non-toxic marker pen). The test article was administered to thirty-six (36) mice after a period of seven (7) days of acclimatisation to the study room.
Blood samples were obtained from three mice per time point and at the time points as specified below:
Blood samples were collected by cardiac puncture with mice held under deep halothane anaesthesia. After sampling mice were euthanased by cervical dislocation.
Samples were collected into pre-heparinised syringes and the samples transferred into 1 ml eppendorf tubes. Plasma was prepared by centrifugation, transferred to clean, labelled eppendorf tubes and frozen at approximately −20° C. pending analysis.
Samples were analysed using HPLC or GC-MS/MS methodology.
Composite plasma concentration time curves were generated over the period of 6-8 hours after the bolus iv or oral dose was administered.

Data set [5] is described as follows: Cytotoxicity / growth inhibition, DU145. The data set is classed as cell-based. The following applies: human, DU145 cells; read-out: Cytotoxic IC50 vs. DU145.
The nature of data set [6]: Metabolic stability, cytosol. The data set is classed as in vitro ADME.
[7] abbreviates: 0.9% saline, saline or isotonic, 0.9% NaCl, 24 hours.
Setting [8] is: aqueous buffer, pH 6.8 phosphate buffer, 24 hours.
[9] abbreviates: deionised water, Water, 24 hours.
[10] abbreviates: saline or isotonic, 5% Dextrose, 24 hours.
Setting [11] is: simulated gastric fluid, 0.1M HCl, 24 hours.
Where [12] appears, read: UV + Pot, 25° C., 0.15 M KCl, read-out: Measured pKa, pKa1.
The mark [13] stands for this setting: potentiometric in aqueous/MeOH, Yasuda-Shedlovsky extrapolation to 0% MeOH, read-out: Measured pKa, pKa2.
[14] abbreviates: potentiometric in aqueous/MeOH, Yasuda-Shedlovsky extrapolation to 0% MeOH, read-out: Measured pKa, pKa3.

Results on 2 compounds are retold here after US20080319001A1, “Cancer Treatment Using Specific 3,6,9-Substituted Acridines” (priority 2005, published 2008).

What is called solubility is the concentration that dissolves in the medium under given conditions. As a reminder, the IC50 is the midpoint of a concentration-inhibition curve. One may read the pKa as the pH at which an ionisable group is half protonated. As a reminder, the AUC(0-t) is exposure summed from dosing to a finite time, without extrapolation to infinity. A low value points to low exposure. As a reminder, the Cmax is the highest concentration seen after dosing. As a reminder, the clearance is the volume of plasma or blood freed of the substance per unit of time. Low readings indicate inefficient removal, high ones efficient removal. One may read the half-life as the time needed for the level to fall by half in the phase considered. Read a high half-life as slow loss.

Where two headings read alike, the source gives them in different places.

Take `CN(C)c1ccc(Nc2c3ccc(NC(=O)CCN4CCCC4)cc3nc3cc(NC(=O)CCN4CCCC4)ccc23)cc1` [BSG01]: the “PH of unfiltered Saturated solution” value was found to be 1.25 in the data set “Thermodynamic solubility” (0.1M HCl); 9.80 in “Thermodynamic solubility” (0.9% NaCl); 8.26 in “Thermodynamic solubility” (5% Dextrose); 8.66 in “Thermodynamic solubility” (Water); 7.45 in the data set “Thermodynamic solubility” (pH 6.8 phosphate buffer). Besides, the solubility at 24 h in the data set “Thermodynamic solubility” (setting [7]) is less than 1 µg/mL; in “Thermodynamic solubility” (setting [8]) it was 2630 µg/mL; in the data set “Thermodynamic solubility” (setting [9]) it was less than 1 µg/mL; in the data set “Thermodynamic solubility” (setting [10]), 220 µg/mL; in “Thermodynamic solubility” (setting [11]), more than 5000 µg/mL. Also, the “Solubility Free Base equivalent” value in the data set “Thermodynamic solubility” (Water, 24 hours) was less than 1 µg/mL. Moreover, the IC50 at 96 h is 2420 nM in data set [1] and 2300 nM in data set [5]. The compound further yielded an FRET in data set [2] of 0.72 µM. The pKa was 4.15 in data set [3] (setting [12]); 4.14 in data set [3] (aqueous UV, read-out: pKa from aqueous UV measurement); 8.14 in data set [3] (setting [13]); 9.08 in data set [3] (setting [14]); 9.31 in data set [3] (potentiometric in aqueous/MeOH, Yasuda-Shedlovsky extrapolation to 0% MeOH, read-out: Measured pKa, pKa4); 4.15 in data set [3] (titration medium, ionic strength adjusted with 0.15 M KCl, potentiometry, incomplete curves, read-out: pKa from potentiometry). The area under the curve AUC(0-t) in data set [4] (Table 3) and in data set [4] (unit inferred) was 0.96 µM·h in each case. In addition, the Cmax in data set [4] was 1900 nM. The compound further had a clearance in data set [4] of 1 mL/min. Further, the half-life in data set [4] is 1.1 h. The “Cytosol (t = 30)” value in data set [6] (t = 30) was found to be 3.5. The “Cytosol (t = 60)” value in data set [6] (t = 60) is on record as 6.3.
As to `O=C(CCN1CCCC1)Nc1ccc2c(NCc3ccc(F)c(F)c3)c3ccc(NC(=O)CCN4CCCC4)cc3nc2c1` [BSG17, N-(9-(3,4-Difluoro-benzylamino)-6-(3-pyrolidin-1-yl-propionamide)-acridin-3-yl)-3-pyrrolidin-1-yl-propionamide], the “PH of unfiltered Saturated solution” value in the data set “Thermodynamic solubility” (0.1M HCl) is recorded as 1.12; in the data set “Thermodynamic solubility” (0.9% NaCl) it was 8.81; in the data set “Thermodynamic solubility” (5% Dextrose), 7.96; in “Thermodynamic solubility” (Water), 8.34; in “Thermodynamic solubility” (pH 6.8 phosphate buffer), 7.49. Further, the solubility at 24 h was less than 1 µg/mL in the data set “Thermodynamic solubility” (setting [7]); 1950 µg/mL in “Thermodynamic solubility” (setting [8]); 20 µg/mL in “Thermodynamic solubility” (setting [9]); 300 µg/mL in the data set “Thermodynamic solubility” (setting [10]); more than 5000 µg/mL in “Thermodynamic solubility” (setting [11]). Further, the values for the concentration for half-maximal inhibition (IC50) at 96 h in data set [1] and in data set [5] were 2120 nM and 9750 nM, respectively. The compound further had an FRET in data set [2] of 0.46 µM. Also, the pKa in data set [3] (setting [12]) was 8.17; in data set [3] (setting [13]), 9.09; in data set [3] (setting [14]), 9.61. In addition, the area under the curve AUC(0-t) in data set [4] (Table 3) and in data set [4] (unit inferred) was 1.23 µM·h each time. The Cmax in data set [4] worked out at 1700 nM. Besides, the clearance in data set [4] was 0.667 mL/min. Also, the half-life in data set [4] is 2.1 h.
